Values quoted from earlier work, collected in patent publication US20130226549A1, “STRUCTURE-BASED FRAGMENT HOPPING FOR LEAD OPTIMIZATION AND IMPROVEMENT IN SYNTHETIC ACCESSIBILITY” (priority 2012, published 2013).
Read-outs that look alike come from different tables or passages of the source.

Molecular target: T1, human 5-LOX (Homo sapiens, UniProt P09917)
T1 sequence (P09917 1-674): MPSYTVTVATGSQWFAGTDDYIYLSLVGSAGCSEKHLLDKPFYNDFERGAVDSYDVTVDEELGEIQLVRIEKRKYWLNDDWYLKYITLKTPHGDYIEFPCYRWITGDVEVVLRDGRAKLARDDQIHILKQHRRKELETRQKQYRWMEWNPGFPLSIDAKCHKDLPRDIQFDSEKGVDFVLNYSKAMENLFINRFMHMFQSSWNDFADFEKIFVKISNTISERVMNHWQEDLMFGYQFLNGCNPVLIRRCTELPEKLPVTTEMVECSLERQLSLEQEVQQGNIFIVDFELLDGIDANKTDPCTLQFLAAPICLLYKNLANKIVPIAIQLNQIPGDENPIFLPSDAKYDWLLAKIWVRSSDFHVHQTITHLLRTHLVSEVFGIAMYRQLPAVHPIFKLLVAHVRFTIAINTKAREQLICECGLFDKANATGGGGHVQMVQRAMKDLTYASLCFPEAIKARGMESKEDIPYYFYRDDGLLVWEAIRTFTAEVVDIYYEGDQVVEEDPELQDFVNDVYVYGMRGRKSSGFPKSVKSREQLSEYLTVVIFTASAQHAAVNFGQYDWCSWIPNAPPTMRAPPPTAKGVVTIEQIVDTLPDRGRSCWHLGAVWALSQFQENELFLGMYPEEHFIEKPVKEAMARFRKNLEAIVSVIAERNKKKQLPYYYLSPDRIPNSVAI
Settings: from the literature

[1] = 5-LOX, LeadOp+R example, read-out: Inhibition IC50

Row | IC50 (human 5-LOX, LeadOp example, read-out: IC50) [nM] | IC50 [1] [nM] | Structure (SMILES)
1 | 64 |  | O=c1cc(-c2ccc(F)cc2)c2ccc(CCc3ncc(C(O)(C(F)(F)F)C(F)(F)F)s3)cc2o1 [compound H]
2 |  | 7 ± 2 | CCC(O)(c1cnc(Sc2ccc3c(-c4ccc(F)cc4)cc(=O)oc3c2)s1)C(F)(F)F (stereo not shown) [rB1]
3 |  | 64 ± 3 | O=c1cc(-c2ccc(F)cc2)c2ccc(CCc3ncc(C(O)(C(F)(F)F)C(F)(F)F)s3)cc2o1 [rB3]

Row | Structure (SMILES) | IC50 (human 5-LOX, LeadOp example, read-out: IC50) [nM] | IC50 [1] [nM]
4 | CN(Cc1ccc2c(-c3ccc(F)cc3)cc(=O)oc2c1)c1ncc(C(O)(C(F)(F)F)C(F)(F)F)s1 [rB, reference compound] |  | 145
